Experimental data reported in ChEMBL document CHEMBL3991601, “The target landscape of clinical kinase drugs” (Science, 2017).
Active and inactive are the calls of the source. Cut-off read from the data, not from the text of the source, for most assays here: actives have a measured Kd and inactives only a lower limit.

target: Ribosomal protein S6 kinase alpha-1 (Homo sapiens, UniProt Q15418)
Note: in the data inactive means no Kd found up to 30 µM.

Question: COCCNCc1ccc(-c2cc3nccc(Oc4ccc(NC(=S)NC(=O)Cc5ccc(F)cc5)cc4F)c3s2)nc1 [GLESATINIB] was tested. Which Kd did it give?
Answer: The Kd was > 30 µM (inactive).

Question: How did the Kd turn out when O=C1NC(=O)/C(=C/c2ccc3nccc(-c4ccncc4)c3c2)S1 [GSK-1059615] was run?
Answer: The Kd was > 30 µM (inactive).

Question: How did the Kd turn out when CC[C@H](Nc1ncnc2[nH]cnc12)c1nc2cccc(F)c2c(=O)n1-c1ccccc1 [IDELALISIB] was run?
Answer: The Kd was > 30 µM (inactive).

target: DNA topoisomerase 2-alpha (Homo sapiens, UniProt P11388)
Sequence (P11388 whole entry): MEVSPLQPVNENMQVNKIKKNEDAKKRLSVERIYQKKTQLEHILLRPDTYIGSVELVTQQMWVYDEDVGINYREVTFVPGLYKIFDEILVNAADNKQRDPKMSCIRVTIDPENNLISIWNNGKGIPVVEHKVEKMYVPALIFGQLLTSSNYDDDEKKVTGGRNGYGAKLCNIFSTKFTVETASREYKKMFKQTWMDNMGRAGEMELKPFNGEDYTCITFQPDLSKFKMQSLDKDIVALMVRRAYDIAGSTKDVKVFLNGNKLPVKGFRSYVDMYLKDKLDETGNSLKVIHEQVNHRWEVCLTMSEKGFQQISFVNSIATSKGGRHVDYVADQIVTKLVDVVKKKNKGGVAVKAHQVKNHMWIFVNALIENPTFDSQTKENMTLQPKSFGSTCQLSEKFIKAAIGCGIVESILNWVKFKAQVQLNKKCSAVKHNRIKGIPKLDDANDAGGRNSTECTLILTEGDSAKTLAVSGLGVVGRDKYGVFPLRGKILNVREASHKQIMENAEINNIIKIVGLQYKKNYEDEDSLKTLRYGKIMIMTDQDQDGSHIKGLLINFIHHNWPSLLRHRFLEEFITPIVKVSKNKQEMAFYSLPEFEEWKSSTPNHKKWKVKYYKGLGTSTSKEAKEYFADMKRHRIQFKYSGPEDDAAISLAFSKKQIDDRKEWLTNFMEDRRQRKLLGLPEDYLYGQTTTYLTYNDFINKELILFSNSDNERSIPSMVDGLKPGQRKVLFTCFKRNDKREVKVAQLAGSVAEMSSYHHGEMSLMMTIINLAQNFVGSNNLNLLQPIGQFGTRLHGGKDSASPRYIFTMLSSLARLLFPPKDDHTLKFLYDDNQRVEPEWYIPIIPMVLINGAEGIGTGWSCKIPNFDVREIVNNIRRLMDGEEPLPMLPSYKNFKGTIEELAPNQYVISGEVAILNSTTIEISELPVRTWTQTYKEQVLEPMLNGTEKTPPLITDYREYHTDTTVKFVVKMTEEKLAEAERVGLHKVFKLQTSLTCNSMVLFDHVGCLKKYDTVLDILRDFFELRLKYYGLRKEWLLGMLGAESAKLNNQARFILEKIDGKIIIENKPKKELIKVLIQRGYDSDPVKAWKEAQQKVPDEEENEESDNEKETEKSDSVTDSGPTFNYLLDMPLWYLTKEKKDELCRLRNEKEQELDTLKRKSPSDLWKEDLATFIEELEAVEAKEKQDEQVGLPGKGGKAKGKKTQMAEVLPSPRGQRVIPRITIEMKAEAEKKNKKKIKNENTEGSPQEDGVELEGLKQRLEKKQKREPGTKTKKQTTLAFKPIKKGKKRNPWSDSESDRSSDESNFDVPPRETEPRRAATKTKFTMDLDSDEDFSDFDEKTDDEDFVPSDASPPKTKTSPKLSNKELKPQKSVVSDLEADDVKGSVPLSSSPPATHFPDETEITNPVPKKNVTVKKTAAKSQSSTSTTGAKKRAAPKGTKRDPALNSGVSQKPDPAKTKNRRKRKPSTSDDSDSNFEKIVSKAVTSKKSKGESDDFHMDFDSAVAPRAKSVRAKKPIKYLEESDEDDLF

Question: For COCCNCc1ccc(-c2cc3nccc(Oc4ccc(NC(=S)NC(=O)Cc5ccc(F)cc5)cc4F)c3s2)nc1 [GLESATINIB], which Kd is on record?
Answer: Its Kd is > 30 µM (inactive).

Question: Which Kd does the source give for O=C1NC(=O)/C(=C/c2ccc3nccc(-c4ccncc4)c3c2)S1 [GSK-1059615] here?
Answer: Its Kd is > 30 µM (inactive).

Question: How did the Kd turn out when CC[C@H](Nc1ncnc2[nH]cnc12)c1nc2cccc(F)c2c(=O)n1-c1ccccc1 [IDELALISIB] was run?
Answer: The Kd was > 30 µM (inactive).

target: T1, Serine/threonine-protein kinase D3 (Homo sapiens, UniProt O94806)
T1 sequence (O94806 whole entry): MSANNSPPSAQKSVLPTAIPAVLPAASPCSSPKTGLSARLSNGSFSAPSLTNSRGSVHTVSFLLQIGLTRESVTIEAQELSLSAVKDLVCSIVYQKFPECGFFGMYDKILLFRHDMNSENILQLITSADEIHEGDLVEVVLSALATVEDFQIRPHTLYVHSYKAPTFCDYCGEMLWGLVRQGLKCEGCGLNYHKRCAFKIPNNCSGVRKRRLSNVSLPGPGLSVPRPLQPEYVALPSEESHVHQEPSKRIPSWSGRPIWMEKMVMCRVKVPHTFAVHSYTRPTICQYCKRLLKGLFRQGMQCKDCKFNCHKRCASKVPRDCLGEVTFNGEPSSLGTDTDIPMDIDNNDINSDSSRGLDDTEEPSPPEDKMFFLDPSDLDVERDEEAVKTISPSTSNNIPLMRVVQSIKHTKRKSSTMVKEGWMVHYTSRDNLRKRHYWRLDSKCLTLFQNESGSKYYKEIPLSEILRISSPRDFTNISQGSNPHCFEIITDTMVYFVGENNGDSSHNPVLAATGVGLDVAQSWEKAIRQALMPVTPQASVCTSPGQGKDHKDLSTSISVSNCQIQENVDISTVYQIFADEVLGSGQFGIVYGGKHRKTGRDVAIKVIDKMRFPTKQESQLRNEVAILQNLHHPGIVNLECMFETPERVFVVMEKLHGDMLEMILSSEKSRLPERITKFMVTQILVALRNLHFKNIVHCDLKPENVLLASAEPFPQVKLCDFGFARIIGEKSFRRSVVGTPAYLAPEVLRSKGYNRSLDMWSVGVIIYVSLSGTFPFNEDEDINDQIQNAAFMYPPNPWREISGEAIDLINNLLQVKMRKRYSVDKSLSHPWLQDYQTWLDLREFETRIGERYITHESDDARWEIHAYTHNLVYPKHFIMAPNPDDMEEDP

Question: COCCNCc1ccc(-c2cc3nccc(Oc4ccc(NC(=S)NC(=O)Cc5ccc(F)cc5)cc4F)c3s2)nc1 [GLESATINIB] was tested. Which Kd did it give?
Answer: The Kd was > 30 µM (inactive).

Question: With O=C1NC(=O)/C(=C/c2ccc3nccc(-c4ccncc4)c3c2)S1 [GSK-1059615] as the molecule, how does the Kd read?
Answer: Its Kd is > 30 µM (inactive).

Question: Which Kd does the source give for CC[C@H](Nc1ncnc2[nH]cnc12)c1nc2cccc(F)c2c(=O)n1-c1ccccc1 [IDELALISIB] here?
Answer: Its Kd is > 30 µM (inactive).

target: Aurora kinase B (Homo sapiens, UniProt Q96GD4)
Sequence (Q96GD4 whole entry): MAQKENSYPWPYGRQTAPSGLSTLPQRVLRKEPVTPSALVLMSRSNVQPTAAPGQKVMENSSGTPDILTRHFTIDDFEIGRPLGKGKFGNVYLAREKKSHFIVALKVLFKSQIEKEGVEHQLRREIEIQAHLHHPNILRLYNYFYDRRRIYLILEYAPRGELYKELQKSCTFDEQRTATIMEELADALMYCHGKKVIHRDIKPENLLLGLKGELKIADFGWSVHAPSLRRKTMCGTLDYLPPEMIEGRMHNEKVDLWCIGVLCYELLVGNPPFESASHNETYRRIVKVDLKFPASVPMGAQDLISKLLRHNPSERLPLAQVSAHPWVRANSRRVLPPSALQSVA

Question: With COCCNCc1ccc(-c2cc3nccc(Oc4ccc(NC(=S)NC(=O)Cc5ccc(F)cc5)cc4F)c3s2)nc1 [GLESATINIB] as the molecule, how does the Kd read?
Answer: Its Kd is > 30 µM (inactive).

Question: With O=C1NC(=O)/C(=C/c2ccc3nccc(-c4ccncc4)c3c2)S1 [GSK-1059615] as the molecule, how does the Kd read?
Answer: Its Kd is > 30 µM (inactive).

Question: For CC[C@H](Nc1ncnc2[nH]cnc12)c1nc2cccc(F)c2c(=O)n1-c1ccccc1 [IDELALISIB], which Kd is on record?
Answer: The Kd was > 30 µM (inactive).

target: Cyclin-dependent kinase 5 (Homo sapiens, UniProt Q00535)
Sequence (Q00535 whole entry): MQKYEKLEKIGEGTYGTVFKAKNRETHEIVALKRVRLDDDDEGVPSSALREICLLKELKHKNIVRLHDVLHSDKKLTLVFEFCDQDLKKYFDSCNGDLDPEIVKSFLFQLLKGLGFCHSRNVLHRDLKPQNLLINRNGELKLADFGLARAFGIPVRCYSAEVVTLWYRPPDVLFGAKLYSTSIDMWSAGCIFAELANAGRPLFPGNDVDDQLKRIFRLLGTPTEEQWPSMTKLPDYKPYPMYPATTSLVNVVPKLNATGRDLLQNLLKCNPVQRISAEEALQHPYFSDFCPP

Question: COCCNCc1ccc(-c2cc3nccc(Oc4ccc(NC(=S)NC(=O)Cc5ccc(F)cc5)cc4F)c3s2)nc1 [GLESATINIB] was tested. Which Kd did it give?
Answer: The Kd was > 30 µM (inactive).

Question: With O=C1NC(=O)/C(=C/c2ccc3nccc(-c4ccncc4)c3c2)S1 [GSK-1059615] as the molecule, how does the Kd read?
Answer: Its Kd is > 30 µM (inactive).

Question: CC[C@H](Nc1ncnc2[nH]cnc12)c1nc2cccc(F)c2c(=O)n1-c1ccccc1 [IDELALISIB] was tested. Which Kd did it give?
Answer: The Kd was > 30 µM (inactive).

target: Cyclin-dependent kinase 7 (Homo sapiens, UniProt P50613)
Sequence (P50613 whole entry): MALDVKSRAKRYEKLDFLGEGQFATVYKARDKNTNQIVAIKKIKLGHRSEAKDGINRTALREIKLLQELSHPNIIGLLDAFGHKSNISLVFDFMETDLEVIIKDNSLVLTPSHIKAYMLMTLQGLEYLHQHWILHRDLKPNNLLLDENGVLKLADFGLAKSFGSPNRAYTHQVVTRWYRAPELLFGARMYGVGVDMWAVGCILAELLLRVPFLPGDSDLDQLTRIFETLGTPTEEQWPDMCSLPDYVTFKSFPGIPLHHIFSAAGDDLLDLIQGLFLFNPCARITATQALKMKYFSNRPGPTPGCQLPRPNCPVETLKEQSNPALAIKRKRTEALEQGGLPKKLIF

Question: Which Kd does the source give for COCCNCc1ccc(-c2cc3nccc(Oc4ccc(NC(=S)NC(=O)Cc5ccc(F)cc5)cc4F)c3s2)nc1 [GLESATINIB] here?
Answer: The Kd was > 30 µM (inactive).

Question: How did the Kd turn out when O=C1NC(=O)/C(=C/c2ccc3nccc(-c4ccncc4)c3c2)S1 [GSK-1059615] was run?
Answer: Its Kd is > 30 µM (inactive).

Question: Which Kd does the source give for CC[C@H](Nc1ncnc2[nH]cnc12)c1nc2cccc(F)c2c(=O)n1-c1ccccc1 [IDELALISIB] here?
Answer: The Kd was > 30 µM (inactive).

target: T2, Calcium/calmodulin-dependent protein kinase type IV (Homo sapiens, UniProt Q16566)
T2 sequence (Q16566 whole entry): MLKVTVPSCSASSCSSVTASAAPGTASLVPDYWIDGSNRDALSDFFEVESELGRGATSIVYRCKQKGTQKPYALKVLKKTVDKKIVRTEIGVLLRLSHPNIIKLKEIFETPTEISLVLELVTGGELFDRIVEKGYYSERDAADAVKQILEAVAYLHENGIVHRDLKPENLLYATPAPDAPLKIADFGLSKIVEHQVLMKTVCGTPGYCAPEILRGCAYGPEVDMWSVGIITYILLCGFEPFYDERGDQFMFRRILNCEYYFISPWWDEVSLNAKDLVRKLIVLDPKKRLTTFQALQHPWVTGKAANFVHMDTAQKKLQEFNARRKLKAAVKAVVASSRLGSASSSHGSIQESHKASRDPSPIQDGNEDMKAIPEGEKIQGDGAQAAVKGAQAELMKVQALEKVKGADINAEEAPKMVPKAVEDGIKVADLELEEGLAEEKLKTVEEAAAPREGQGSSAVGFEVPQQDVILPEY

Question: Which Kd does the source give for COCCNCc1ccc(-c2cc3nccc(Oc4ccc(NC(=S)NC(=O)Cc5ccc(F)cc5)cc4F)c3s2)nc1 [GLESATINIB] here?
Answer: The Kd was > 30 µM (inactive).

Question: Which Kd does the source give for O=C1NC(=O)/C(=C/c2ccc3nccc(-c4ccncc4)c3c2)S1 [GSK-1059615] here?
Answer: Its Kd is > 30 µM (inactive).

Question: For CC[C@H](Nc1ncnc2[nH]cnc12)c1nc2cccc(F)c2c(=O)n1-c1ccccc1 [IDELALISIB], which Kd is on record?
Answer: Its Kd is > 30 µM (inactive).

target: T3, Membrane-associated tyrosine- and threonine-specific cdc2-inhibitory kinase (Homo sapiens, UniProt Q99640)
T3 sequence (Q99640 whole entry): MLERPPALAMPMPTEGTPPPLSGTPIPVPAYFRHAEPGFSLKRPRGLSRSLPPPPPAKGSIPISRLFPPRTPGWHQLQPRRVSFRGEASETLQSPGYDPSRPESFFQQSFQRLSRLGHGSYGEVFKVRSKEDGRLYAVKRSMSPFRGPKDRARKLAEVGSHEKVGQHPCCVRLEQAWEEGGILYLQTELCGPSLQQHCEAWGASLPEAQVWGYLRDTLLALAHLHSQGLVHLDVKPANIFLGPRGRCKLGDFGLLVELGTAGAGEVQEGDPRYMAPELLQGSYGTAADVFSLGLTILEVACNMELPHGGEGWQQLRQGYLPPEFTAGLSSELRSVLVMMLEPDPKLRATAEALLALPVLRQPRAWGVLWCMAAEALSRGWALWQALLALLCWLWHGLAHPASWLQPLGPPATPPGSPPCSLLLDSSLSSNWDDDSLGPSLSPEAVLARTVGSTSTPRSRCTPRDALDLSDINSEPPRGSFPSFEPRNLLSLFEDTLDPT

Question: COCCNCc1ccc(-c2cc3nccc(Oc4ccc(NC(=S)NC(=O)Cc5ccc(F)cc5)cc4F)c3s2)nc1 [GLESATINIB] was tested. Which Kd did it give?
Answer: Its Kd is > 30 µM (inactive).

Question: For O=C1NC(=O)/C(=C/c2ccc3nccc(-c4ccncc4)c3c2)S1 [GSK-1059615], which Kd is on record?
Answer: Its Kd is > 30 µM (inactive).

Question: How did the Kd turn out when CC[C@H](Nc1ncnc2[nH]cnc12)c1nc2cccc(F)c2c(=O)n1-c1ccccc1 [IDELALISIB] was run?
Answer: The Kd was > 30 µM (inactive).

target: Insulin receptor (Homo sapiens, UniProt P06213)

Question: For COCCNCc1ccc(-c2cc3nccc(Oc4ccc(NC(=S)NC(=O)Cc5ccc(F)cc5)cc4F)c3s2)nc1 [GLESATINIB], which Kd is on record?
Answer: The Kd was > 30 µM (inactive).

Question: How did the Kd turn out when O=C1NC(=O)/C(=C/c2ccc3nccc(-c4ccncc4)c3c2)S1 [GSK-1059615] was run?
Answer: The Kd was > 30 µM (inactive).

Question: How did the Kd turn out when CC[C@H](Nc1ncnc2[nH]cnc12)c1nc2cccc(F)c2c(=O)n1-c1ccccc1 [IDELALISIB] was run?
Answer: Its Kd is > 30 µM (inactive).

target: T4, Very long-chain specific acyl-CoA dehydrogenase, mitochondrial (Homo sapiens, UniProt P49748)
T4 sequence (P49748 whole entry): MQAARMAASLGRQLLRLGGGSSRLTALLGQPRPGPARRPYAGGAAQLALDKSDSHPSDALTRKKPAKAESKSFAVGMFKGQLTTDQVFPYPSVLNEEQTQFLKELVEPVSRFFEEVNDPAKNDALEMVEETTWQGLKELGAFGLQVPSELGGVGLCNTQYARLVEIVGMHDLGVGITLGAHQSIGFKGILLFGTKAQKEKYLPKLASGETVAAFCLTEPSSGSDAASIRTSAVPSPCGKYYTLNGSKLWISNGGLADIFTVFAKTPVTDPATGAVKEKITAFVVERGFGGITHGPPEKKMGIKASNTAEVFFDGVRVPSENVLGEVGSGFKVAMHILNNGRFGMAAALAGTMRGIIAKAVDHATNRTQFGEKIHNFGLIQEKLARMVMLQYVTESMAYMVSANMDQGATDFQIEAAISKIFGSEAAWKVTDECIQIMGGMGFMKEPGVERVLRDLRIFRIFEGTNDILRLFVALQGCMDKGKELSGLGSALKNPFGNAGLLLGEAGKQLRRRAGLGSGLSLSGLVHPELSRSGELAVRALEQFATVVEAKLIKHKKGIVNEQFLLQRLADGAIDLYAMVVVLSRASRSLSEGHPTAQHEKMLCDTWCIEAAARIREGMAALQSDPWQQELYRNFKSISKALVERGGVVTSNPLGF

Question: With COCCNCc1ccc(-c2cc3nccc(Oc4ccc(NC(=S)NC(=O)Cc5ccc(F)cc5)cc4F)c3s2)nc1 [GLESATINIB] as the molecule, how does the Kd read?
Answer: Its Kd is > 30 µM (inactive).

Question: With O=C1NC(=O)/C(=C/c2ccc3nccc(-c4ccncc4)c3c2)S1 [GSK-1059615] as the molecule, how does the Kd read?
Answer: Its Kd is > 30 µM (inactive).

Question: CC[C@H](Nc1ncnc2[nH]cnc12)c1nc2cccc(F)c2c(=O)n1-c1ccccc1 [IDELALISIB] was tested. Which Kd did it give?
Answer: Its Kd is > 30 µM (inactive).

target: Serine/threonine-protein kinase SIK3 (Homo sapiens, UniProt Q9Y2K2)
Sequence (Q9Y2K2 whole entry): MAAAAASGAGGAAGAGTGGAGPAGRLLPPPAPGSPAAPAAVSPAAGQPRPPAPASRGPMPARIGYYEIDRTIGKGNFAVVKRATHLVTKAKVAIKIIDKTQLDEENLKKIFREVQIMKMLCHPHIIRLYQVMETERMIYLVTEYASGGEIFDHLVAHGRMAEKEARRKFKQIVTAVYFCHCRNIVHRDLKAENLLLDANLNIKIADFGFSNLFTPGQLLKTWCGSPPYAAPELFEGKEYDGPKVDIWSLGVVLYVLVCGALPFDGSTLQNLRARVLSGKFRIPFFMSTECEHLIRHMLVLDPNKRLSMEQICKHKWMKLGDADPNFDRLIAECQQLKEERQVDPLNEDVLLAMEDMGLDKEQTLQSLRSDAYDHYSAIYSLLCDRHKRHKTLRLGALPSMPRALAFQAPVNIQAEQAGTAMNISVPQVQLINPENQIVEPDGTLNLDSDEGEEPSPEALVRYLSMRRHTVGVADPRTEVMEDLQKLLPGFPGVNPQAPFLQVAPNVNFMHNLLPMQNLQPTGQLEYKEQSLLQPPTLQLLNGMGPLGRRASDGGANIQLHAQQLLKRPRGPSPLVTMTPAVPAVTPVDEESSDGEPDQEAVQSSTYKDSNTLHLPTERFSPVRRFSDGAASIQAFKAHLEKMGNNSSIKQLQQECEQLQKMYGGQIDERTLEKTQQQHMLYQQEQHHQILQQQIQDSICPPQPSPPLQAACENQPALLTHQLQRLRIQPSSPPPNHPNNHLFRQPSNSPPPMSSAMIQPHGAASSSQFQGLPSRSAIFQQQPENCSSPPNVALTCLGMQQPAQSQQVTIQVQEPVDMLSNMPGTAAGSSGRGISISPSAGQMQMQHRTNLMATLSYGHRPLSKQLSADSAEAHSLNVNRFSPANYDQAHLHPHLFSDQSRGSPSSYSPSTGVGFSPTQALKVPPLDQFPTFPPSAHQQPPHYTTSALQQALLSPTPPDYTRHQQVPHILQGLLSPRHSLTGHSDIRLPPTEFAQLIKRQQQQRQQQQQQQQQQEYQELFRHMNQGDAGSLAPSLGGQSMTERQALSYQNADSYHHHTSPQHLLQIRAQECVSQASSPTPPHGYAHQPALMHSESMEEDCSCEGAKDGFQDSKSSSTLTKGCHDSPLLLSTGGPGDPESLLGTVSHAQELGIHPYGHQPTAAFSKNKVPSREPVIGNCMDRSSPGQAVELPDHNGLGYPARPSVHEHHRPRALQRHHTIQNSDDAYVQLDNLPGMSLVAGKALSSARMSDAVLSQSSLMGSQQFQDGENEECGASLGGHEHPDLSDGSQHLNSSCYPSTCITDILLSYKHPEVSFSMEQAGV

Question: For COCCNCc1ccc(-c2cc3nccc(Oc4ccc(NC(=S)NC(=O)Cc5ccc(F)cc5)cc4F)c3s2)nc1 [GLESATINIB], which Kd is on record?
Answer: The Kd was > 30 µM (inactive).

Question: Which Kd does the source give for O=C1NC(=O)/C(=C/c2ccc3nccc(-c4ccncc4)c3c2)S1 [GSK-1059615] here?
Answer: Its Kd is > 30 µM (inactive).

Question: How did the Kd turn out when CC[C@H](Nc1ncnc2[nH]cnc12)c1nc2cccc(F)c2c(=O)n1-c1ccccc1 [IDELALISIB] was run?
Answer: The Kd was > 30 µM (inactive).

target: Serine/threonine-protein kinase 10 (Homo sapiens, UniProt O94804)
Sequence (O94804 whole entry): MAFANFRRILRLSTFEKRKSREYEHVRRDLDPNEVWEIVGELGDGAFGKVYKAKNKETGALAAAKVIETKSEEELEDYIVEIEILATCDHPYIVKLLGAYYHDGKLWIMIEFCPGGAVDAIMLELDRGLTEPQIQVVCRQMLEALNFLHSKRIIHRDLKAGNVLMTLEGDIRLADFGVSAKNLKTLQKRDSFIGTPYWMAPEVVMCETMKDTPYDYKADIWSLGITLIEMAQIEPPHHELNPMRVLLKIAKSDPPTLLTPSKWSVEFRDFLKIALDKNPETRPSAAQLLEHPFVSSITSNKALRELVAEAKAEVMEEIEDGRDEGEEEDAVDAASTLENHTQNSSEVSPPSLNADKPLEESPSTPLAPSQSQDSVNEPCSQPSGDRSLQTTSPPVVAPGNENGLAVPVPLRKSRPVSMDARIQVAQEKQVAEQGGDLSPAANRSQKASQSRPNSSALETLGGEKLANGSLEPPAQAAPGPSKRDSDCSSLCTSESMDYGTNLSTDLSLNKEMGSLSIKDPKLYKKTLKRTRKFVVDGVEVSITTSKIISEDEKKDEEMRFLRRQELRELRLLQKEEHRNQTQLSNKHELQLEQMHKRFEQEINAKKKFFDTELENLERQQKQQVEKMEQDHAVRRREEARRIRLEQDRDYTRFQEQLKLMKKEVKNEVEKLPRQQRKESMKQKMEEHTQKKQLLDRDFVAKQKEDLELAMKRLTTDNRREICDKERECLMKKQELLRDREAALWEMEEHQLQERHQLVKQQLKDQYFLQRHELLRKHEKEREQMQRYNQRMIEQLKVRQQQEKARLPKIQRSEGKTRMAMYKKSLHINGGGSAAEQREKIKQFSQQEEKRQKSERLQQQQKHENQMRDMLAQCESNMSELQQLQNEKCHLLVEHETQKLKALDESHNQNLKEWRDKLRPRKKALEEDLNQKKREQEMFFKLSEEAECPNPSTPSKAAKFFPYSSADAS

Question: COCCNCc1ccc(-c2cc3nccc(Oc4ccc(NC(=S)NC(=O)Cc5ccc(F)cc5)cc4F)c3s2)nc1 [GLESATINIB] was tested. Which Kd did it give?
Answer: Its Kd is > 30 µM (inactive).

Question: With O=C1NC(=O)/C(=C/c2ccc3nccc(-c4ccncc4)c3c2)S1 [GSK-1059615] as the molecule, how does the Kd read?
Answer: Its Kd is 0.317 µM (active).

Question: With CC[C@H](Nc1ncnc2[nH]cnc12)c1nc2cccc(F)c2c(=O)n1-c1ccccc1 [IDELALISIB] as the molecule, how does the Kd read?
Answer: The Kd was > 30 µM (inactive).
